According to patent US20140073631A1 (priority 2012, published 2014):
Converted amounts (≈) assume the structure as drawn. Where two headings read alike, the source gives them in different places.

Key:
[1] = test system: B. anthracis; assay: microbe, parasite or virus in culture; format: cell-based; conditions: Bacillus anthracis, read-out: MIC B. anthracis
[2] = test system: Bacillus anthracis; assay: microbe, parasite or virus in culture; format: cell-based; conditions: Bacillus anthracis
[3] = test system: TB; assay: DMID TB MIC Results (Table 10); format: cell-based; conditions: Mycobacterium tuberculosis; solvent DMSO
[4] = test system: E. coli; assay: microbe, parasite or virus in culture; format: cell-based; conditions: Escherichia coli, read-out: MIC E. coli
[5] = test system: Yersinia pestis; assay: microbe, parasite or virus in culture; format: cell-based; conditions: Yersinia pestis
[6] = test system: F. tularensis; assay: microbe, parasite or virus in culture; format: cell-based; conditions: Francisella tularensis, read-out: MIC F. tularensis (Original Test)
[7] = test system: B. mallei; assay: microbe, parasite or virus in culture; format: cell-based; conditions: Burkholderia mallei, read-out: MIC B. mallei
[8] = test system: H37Rv Colorado strain; assay: MBC Determination with H37Rv Colorado strain (Table 9); format: cell-based; conditions: Mycobacterium tuberculosis; Performed with H37Rv
[9] = test system: Y. pestis; assay: microbe, parasite or virus in culture; format: cell-based; conditions: Yersinia pestis, read-out: MIC Y. pestis
[10] = test system: Burkholderia mallei; assay: microbe, parasite or virus in culture; format: cell-based; conditions: Burkholderia mallei
[11] = test system: B. pseudomallei; assay: microbe, parasite or virus in culture; format: cell-based; conditions: Burkholderia pseudomallei, read-out: MIC B. pseudomallei
[12] = test system: Vero Cells; assay: Cytotoxicity Assay, CellTiter-Glo Luminescent Cell Viability Assay
[13] = test system: H37Rv Colorado strain; assay: TB MIC Testing (Table 9); format: cell-based; conditions: Mycobacterium tuberculosis, read-out: MIC Value, Standard Test Strain H27Rv
[14] = test system: P. aeruginosa; assay: microbe, parasite or virus in culture; format: cell-based; conditions: Pseudomonas aeruginosa, read-out: MIC P. aeruginosa
[15] = test system: Francisella tularensis; assay: microbe, parasite or virus in culture; format: cell-based; conditions: Francisella tularensis
[16] = test system: Plasmodium falciparum; assay: Anti-malaria testing; format: cell-based
[17] = test system: Burkholderia pseudomallei; assay: microbe, parasite or virus in culture; format: cell-based
[18] = test system: CEM-SS cells
[19] = test system: HIV-1; assay: CEM-SS microtiter antiviral XTT cytoprotection assay; format: cell-based
[20] = test system: Y. pestis C092; format: in vivo, BALB/c mice; conditions: 21 days
[21] = test system: F. tularensis SCHU S4; set-up: species or system BALB/c mice; conditions: mouse, in vivo
[22] = average of Test 1 and Test 2, read-out: Average IC50

SMILES: CC1COc2c(N3CCN(C(=N)NC#N)CC3)c(F)cc3c(=O)c(C(=O)O)cn1c23 (stereo not drawn) [BVS-60C (XVII)]
- MIC [1]: < 0.06 µg/mL
- MIC90 [2]: ≤ 0.25 µg/mL
- IC50 [3]: 0.22 µg/mL (≈ 0.531 µM)
- IC90 [3]: 0.23 µg/mL (≈ 0.555 µM)
- MIC [3]: 0.312 µg/mL (≈ 0.753 µM)
- MIC [4]: 0.06 to 0.12 µg/mL (≈ 0.145 to 0.29 µM)
- MIC90 [5]: < 4 µg/mL
- MIC [6]: < 0.06 µg/mL
- MIC [7]: 1 µg/mL (≈ 2.41 µM)
- MBC [8]: 0.625 µg/mL (≈ 1.51 µM)
- MIC [9]: 0.06 µg/mL (≈ 0.145 µM)
- MIC90 [10]: < 4 µg/mL
- MIC [11]: 1 to 2 µg/mL (≈ 2.41 to 4.83 µM)
- % Viability ([12]; 0.01 μg/ml): 93%
- % Viability ([12]; 0.02 μg/ml): 95%
- % Viability ([12]; 5 μg/ml): 92%
- % Viability ([12]; 10 μg/ml): 88%
- % Viability ([12]; 20 μg/ml, vs […] DMSO controls): 96%
- MIC [13]: 0.312 µg/mL (≈ 0.753 µM)
- MIC [14]: 2 µg/mL (≈ 4.83 µM)
- MIC90 [15]: < 4 µg/mL
- IC50 [16, 22]: 6.11 µM
- IC50 ([16]; read-out: IC50 Test 1): 6.11 µM

SMILES: C[C@@H]1COc2c(N3CCN(C(=N)NC(=N)NCCCCCCNC(=N)NC(=N)N4CCN(c5c(F)cc6c(=O)c(C(=O)O)cn7c6c5OC[C@@H]7C)CC4)CC3)c(F)cc3c(=O)c(C(=O)O)cn1c23 [BVS-85A (XVII)]
- MIC [1]: < 0.06 µg/mL
- IC50 [3]: 0.53 µg/mL (≈ 0.561 µM)
- IC90 [3]: 0.57 µg/mL (≈ 0.603 µM)
- MIC [3]: 0.625 µg/mL (≈ 0.661 µM)
- MIC [4]: < 0.06 µg/mL
- MIC [6]: < 0.06 µg/mL
- MIC [7]: 0.5 µg/mL (≈ 0.529 µM)
- MBC [8]: 1.25 µg/mL (≈ 1.32 µM)
- MIC [9]: 0.06 to 0.12 µg/mL (≈ 0.0635 to 0.127 µM)
- MIC [11]: 8 µg/mL (≈ 8.47 µM)
- % Viability ([12]; 0.01 μg/ml): 109%
- % Viability ([12]; 0.02 μg/ml): 109%
- % Viability ([12]; 5 μg/ml): 106%
- % Viability ([12]; 10 μg/ml): 101%
- % Viability ([12]; 20 μg/ml, vs […] DMSO controls): 107%
- MIC [13]: 1.25 µg/mL (≈ 1.32 µM)
- MIC [14]: 0.5 µg/mL (≈ 0.529 µM)
- IC50 [16, 22]: 7.26 µM
- IC50 ([16]; read-out: IC50 Test 1): 5.45 µM
- IC50 ([16]; read-out: IC50 Test 2): 9.06 µM

SMILES: O=C(O)C1=C(c2ccc(F)c(N3CCNCC3)c2)N(C23CC4CCC(C2)C(C4)C3)C(=O)CC1 (stereo not drawn) [BVS-97E (XIV)]
- MIC [1]: 4 µg/mL (≈ 8.82 µM)
- MIC [4]: 16 to 32 µg/mL (≈ 35.3 to 70.6 µM)
- MIC [6]: 0.5 to 4 µg/mL (≈ 1.1 to 8.82 µM)
- MIC [7]: > 64 µg/mL
- MIC [9]: > 64 µg/mL
- MIC [11]: > 64 µg/mL
- MIC [14]: > 64 µg/mL

SMILES: CC(C)(O/N=C(\C(=O)N[C@@H]1C(=O)N2C(C(=O)[O-])=C(C[n+]3ccccc3)CS[C@H]12)c1csc(N)n1)C(=O)O [Ceftazidime, ceftazidime, reference compound]
- MIC Range [17]: 0.5 to 32 µg/mL
- MIC50 ([17]; Burkholderia pseudomallei): 2 µg/mL (≈ 3.66 µM)
- MIC90 ([17]; Burkholderia pseudomallei): 4 µg/mL (≈ 7.32 µM)

SMILES: O=C(O)c1cn(C2CC2)c2cc(N3CCNCC3)c(F)cc2c1=O [Ciprofloxacin, ciprofloxacin, reference compound]
- MIC [1]: < 0.03 µg/mL
- MIC [4]: 0.015 to 0.06 µg/mL (≈ 0.0453 to 0.181 µM)
- MIC [7]: 1 µg/mL (≈ 3.02 µM)
- MIC [11]: 0.5 to 1 µg/mL (≈ 1.51 to 3.02 µM)
- MIC [14]: 0.25 µg/mL (≈ 0.754 µM)

SMILES: Nc1ccn([C@H]2CC[C@@H](CO)O2)c(=O)n1 [DDC, di-deoxycytosine, reference compound]
- % CELL VIABILITY ([18]; 0.00003 μM): 100%
- % CELL VIABILITY ([18]; 0.0001 μM): 93%
- % CELL VIABILITY ([18]; 0.00032 μM): 99%
- % CELL VIABILITY ([18]; 0.001 μM): 100%
- % CELL VIABILITY ([18]; 0.0032 μM): 100%
- % CELL VIABILITY ([18]; 0.01 μM): 100%
- % CELL VIABILITY ([18]; 0.032 μM): 100%
- % CELL VIABILITY ([18]; 0.1 μM): 96%
- % CELL VIABILITY ([18]; 0.32 μM): 97%
- % CELL VIABILITY ([18]; 1 μM): 100%
- % CELL VIABILITY ([18]; 3.2 μM): 100%
- % CELL VIABILITY ([18]; 10 μM): 100%
- % RED. IN VIRAL CPE ([19]; 0.00003 μM): 1%
- % RED. IN VIRAL CPE ([19]; 0.0001 μM): 5%
- % RED. IN VIRAL CPE ([19]; 0.00032 μM): 6%
- % RED. IN VIRAL CPE ([19]; 0.001 μM): 4%
- % RED. IN VIRAL CPE ([19]; 0.0032 μM): 8%
- % RED. IN VIRAL CPE ([19]; 0.01 μM): 9%
- % RED. IN VIRAL CPE ([19]; 0.032 μM): 75%
- % RED. IN VIRAL CPE ([19]; 0.1 μM): 81%
- % RED. IN VIRAL CPE ([19]; 0.32 μM): 92%
- % RED. IN VIRAL CPE ([19]; 1 μM): 86%
- % RED. IN VIRAL CPE ([19]; 3.2 μM): 100%
- % RED. IN VIRAL CPE ([19]; 10 μM): 100%

SMILES: NNC(=O)c1ccncc1 [Isoniazid, isoniazid, reference compound]
- MIC [3]: 0.06 µg/mL (≈ 0.438 µM)
- MBC [8]: 0.031 µg/mL (≈ 0.226 µM)
- MIC [13]: 0.031 µg/mL (≈ 0.226 µM)

SMILES: C[C@H]1COc2c(N3CCN(C)CC3)c(F)cc3c(=O)c(C(=O)O)cn1c23 [Levofloxacin, reference compound]
- survival [20]: 88.9%
- survival [21]: 100%
